For 31 compounds, melting point results are on record in patent publication US6544985B2, “Dihydro-benzo [b][1,4]diazepin-2-one derivatives” (Hoffman-La Roche Inc., priority 2001, dated 2003).

Molecules are shown by their SMILES.

The compound `CC(C)Nc1cc2c(cc1Cl)NC(=O)CC(c1cccc(-n3nncc3CO)c1)=N2` [Example 161, 8-Chloro-4-[3-(5-hydroxymethyl-[1,2,3]triazol-1-yl)-phenyl]-7-isopropylamino-1,3-dihydro-benzo[b][1,4]diazepin-2-one] had a melting point of 250 °C.

As for `CCCN(C)c1cc2c(cc1Cl)NC(=O)CC(c1cccc(-n3ncnc3CO)c1)=N2` [Example 162, 8-Chloro-7-(methyl-propyl-amino)-4-[3-(5-hydroxymethyl-[1,2,4]triazol-1-yl)-phenyl]-1,3-dihydro-benzo[b][1,4]diazepin-2-one], the melting point was 192 °C.

The compound `CCCN(C)c1cc2c(cc1Cl)NC(=O)CC(c1cccc(-n3ncnc3CN3CCCC3)c1)=N2` [Example 164, 8-Chloro-7-(methyl-propyl-amino)-4-[3-(5-pyrrolidin-1-ylmethyl-[1,2,4]triazol-1-yl)-phenyl]-1,3-dihydro-benzo[b][1,4]diazepin-2-one] returned a melting point of 183 °C.

Consider `CC(C)CN(C)c1cc2c(cc1Cl)NC(=O)CC(c1cccc(-n3ncnc3CN3CCCC3)c1)=N2` [Example 165, 8-Chloro-7-(isobutyl-methyl-amino)-4-[3-(5-pyrrolidin-1-ylmethyl-[1,2,4]triazol-1-yl)-phenyl]-1,3-dihydro-benzo[b][1,4]diazepin-2-one], for which the melting point was determined as 164 °C.

With `CCCN(C)c1cc2c(cc1Cl)NC(=O)CC(c1cccc(-n3ncnc3CN(C)C)c1)=N2` [Example 166, 8-Chloro-4-[3-(5-dimethylaminomethyl-[1,2,4]triazol-1-yl)-phenyl]-7-(methyl-propyl-amino)-1,3-dihydro-benzo[b][1,4]diazepin-2-one], the melting point was found to be 170 °C.

In turn, `CCCN(C)c1cc2c(cc1Cl)NC(=O)CC(c1cccc(-n3ncnc3CNC3CC3)c1)=N2` [Example 167, 8-Chloro-4-[3-(5-cyclopropylaminomethyl-[1,2,4]triazol-1-yl)-phenyl]-7-(methyl-propyl-amino)-1,3-dihydro-benzo[b][1,4]diazepin-2-one] registered a melting point of 123 °C.

`Cc1cc2c(cc1N(C)CC(C)C)N=C(c1cccc(-n3ncnc3CO)c1)CC(=O)N2` [Example 168, 4-[3-(5-Hydroxymethyl-[1,2,4]triazol-1-yl)-phenyl]-7-(isobutyl-methyl-amino)-8-methyl-1,3-dihydro-benzo[b][1,4]diazepin-2-one] yielded a melting point of 191 °C.

As to `CCCN(C)c1cc2c(cc1C(F)(F)F)NC(=O)CC(c1cccc(-n3ccnn3)c1)=N2` [Example 170, 7-(Methyl-propyl-amino)-4-(3-[1,2,3]triazol-1-yl-phenyl)-8-trifluoromethyl-1,3-dihydro-benzo[b][1,4]diazepin-2-one], the melting point was 147 °C.

On to `CC(C)CN(C)c1cc2c(cc1C(F)(F)F)NC(=O)CC(c1cccc(-n3cccn3)c1)=N2` [Example 171, 7-(Isobutyl-methyl-amino)-4-(3-pyrazol-1-yl-phenyl)-8-trifluoromethyl-1,3-dihydro-benzo[b][1,4]diazepin-2-one], for which the melting point was 182 °C.

`CC(C)N(C)c1cc2c(cc1C(F)(F)F)NC(=O)CC(c1ccnc(C#N)c1)=N2` [Example 172, 4-[8-(Isopropyl-methyl-amino)-4-oxo-7-trifluoromethyl-4,5-dihydro-3H-benzo[b][1,4]diazepin-2-yl]-pyridine-2-carbonitrile] showed a melting point of 189 °C.

Regarding `CC(C)CN(C)c1cc2c(cc1Cl)NC(=O)CC(c1cccc(-n3cncn3)c1)=N2` [Example 173, 8-Chloro-7-(isobutyl-methyl-amino)-4-(3-[1,2,4]triazol-1-yl-phenyl)-1,3-dihydro-benzo[b][1,4]diazepin-2-one], the melting point worked out at 213 °C.

In the case of `CC(C)CN(C)c1cc2c(cc1Cl)NC(=O)CC(c1cccc(-n3ccnn3)c1)=N2` [Example 175, 8-Chloro-7-(isobutyl-methyl-amino)-4-(3-[1,2,3]triazol-1-yl-phenyl)-1,3-dihydro-benzo[b][1,4]diazepin-2-one], the melting point amounted to 85 °C.

Compound `CC(C)CN(C)c1cc2c(cc1C(F)(F)F)NC(=O)CC(c1cccc(-n3ccnn3)c1)=N2` [Example 176, 7-(Isobutyl-methyl-amino)-4-(3-[1,2,3]triazol-1-yl-phenyl)-8-trifluoromethyl-1,3-dihydro-benzo[b][1,4]diazepin-2-one] registered a melting point of 202 °C.

The compound `CC(C)CNc1cc2c(cc1C(F)(F)F)NC(=O)CC(c1cccc(-n3ccnc3)c1)=N2` [Example 177, 4-(3-Imidazol-1-yl-phenyl)-7-isobutylamino-8-trifluoromethyl-1,3-dihydro-benzo[b][1,4]diazepin-2-one] gave a melting point of 221 °C.

`CC(C)CNc1cc2c(cc1Cl)NC(=O)CC(c1cccc(-n3ccnc3)c1)=N2` [Example 178, 8-Chloro-4-(3-imidazol-1-yl-phenyl)-7-isobutylamino-1,3-dihydro-benzo[b][1,4]diazepin-2-one] yielded a melting point of 212 °C.

`CC(C)CNc1cc2c(cc1Cl)NC(=O)CC(c1cccc(-n3ccnn3)c1)=N2` [Example 179, 8-Chloro-7-(isobutyl-amino)-4-(3-[1,2,3]triazol-1-yl-phenyl)-1,3-dihydro-benzo[b][1,4]diazepin-2-one] had a melting point of 249 °C.

Consider `CC(C)CNc1cc2c(cc1C(F)(F)F)NC(=O)CC(c1cccc(-n3ccnn3)c1)=N2` [Example 180, 7-(Isobutyl-amino)-4-(3-[1,2,3]triazol-1-yl-phenyl)-8-trifluoromethyl-1,3-dihydro-benzo[b][1,4]diazepin-2-one], for which the melting point was 212 °C.

`CC(C)CNc1cc2c(cc1Cl)NC(=O)CC(c1cccc(-n3cncn3)c1)=N2` [Example 181, 8-Chloro-7-(isobutyl-amino)-4-(3-[1,2,4]triazol-1-yl-phenyl)-1,3-dihydro-benzo[b][1,4]diazepin-2-one]: the melting point stood at 222 °C.

Turning to `CC(C)CNc1cc2c(cc1C(F)(F)F)NC(=O)CC(c1cccc(-n3cncn3)c1)=N2` [Example 182, 7-(Isobutyl-amino)-4-(3-[1,2,4]triazol-1-yl-phenyl)-8-trifluoromethyl-1,3-dihydro-benzo[b][1,4]diazepin-2-one], the melting point turned out to be 191 °C.

The compound `CCN(C)c1cc2c(cc1Cl)NC(=O)CC(c1cccc(-c3nc(CO)cs3)c1)=N2` [Example 183, 8-Chloro-7-(ethyl-methyl-amino)-4-[3-(4-hydroxymethyl-thiazol-2-yl)-phenyl]-1,3-dihydro-benzo[b][1,4]diazepin-2-one] showed a melting point of 136 to 137 °C.

The compound `CCCN(C)c1cc2c(cc1Cl)NC(=O)CC(c1cccc(-c3nc(CO)cs3)c1)=N2` [Example 184, 8-Chloro-4-[3-(4-hydroxymethyl-thiazol-2-yl)-phenyl]-7-(methyl-propyl-amino)-1,3-dihydro-benzo[b][1,4]diazepin-2-one] registered a melting point of 211 to 213 °C.

On to `CC(C)N(C)c1cc2c(cc1Cl)NC(=O)CC(c1cccc(-c3nc(CO)cs3)c1)=N2` [Example 185, 8-Chloro-4-[3-(4-hydroxymethyl-thiazol-2-yl)-phenyl]-7-(isopropyl-methyl-amino)-1,3-dihydro-benzo[b][1,4]diazepin-2-one], for which the melting point was 193 to 195 °C.

On to `CCN(C)c1cc2c(cc1Cl)NC(=O)CC(c1cccc(-c3nc(CO)co3)c1)=N2` [Example 187, 8-Chloro-7-(ethyl-methyl-amino)-4-[3-(4-hydroxymethyl-oxazol-2-yl)-phenyl]-1,3-dihydro-benzo[b][1,4]diazepin-2-one], for which the melting point is 165 to 166 °C.

For the compound `CCCN(C)c1cc2c(cc1Cl)NC(=O)CC(c1cccc(-c3nc(CO)co3)c1)=N2` [Example 188, 8-Chloro-4-[3-(4-hydroxymethyl-oxazol-2-yl)-phenyl]-7-(methyl-propyl-amino)-1,3-dihydro-benzo[b][1,4]diazepin-2-one], the melting point lay in the range of 166 to 167 °C.

Take `CC(C)N(C)c1cc2c(cc1Cl)NC(=O)CC(c1cccc(-c3nc(CO)co3)c1)=N2` [Example 189, 8-Chloro-4-[3-(4-hydroxymethyl-oxazol-2-yl)-phenyl]-7-(isopropyl-methyl-amino)-1,3-dihydro-benzo[b][1,4]diazepin-2-one]: the melting point lay in the range of 143 to 145 °C.

For `CC(C)CN(C)c1cc2c(cc1Cl)NC(=O)CC(c1cccc(-c3nc(CO)co3)c1)=N2` [Example 190, 8-Chloro-4-[3-(4-hydroxymethyl-oxazol-2-yl)-phenyl]-7-(isobutyl-methyl-amino)-1,3-dihydro-benzo[b][1,4]diazepin-2-one], the melting point was in the range of 166 to 167 °C.

In turn, `CNCc1csc(-c2cccc(C3=Nc4cc(N(C)C)c(Cl)cc4NC(=O)C3)c2)n1` [Example 191, 8-Chloro-7-dimethylamino-4-[3-(4-methylaminomethyl-thiazol-2-yl)-phenyl]-1,3-dihydro-benzo[b][1,4]diazepin-2-one] had a melting point of 129 to 130 °C.

Compound `CN(C)c1cc2c(cc1Cl)NC(=O)CC(c1cccc(-c3nc(CN4CCOCC4)cs3)c1)=N2` [Example 192, 8-Chloro-7-dimethylamino-4-[3-(4-morpholin-4-ylmethyl-thiazol-2-yl)-phenyl]-1,3-dihydro-benzo[b][1,4]diazepin-2-one] returned a melting point of 138 to 143 °C.

For the compound `CN(C)c1cc2c(cc1Cl)NC(=O)CC(c1cccc(-c3csc(CO)n3)c1)=N2` [Example 193, 8-Chloro-7-dimethylamino-4-[3-(2-hydroxymethyl-thiazol-4-yl)-phenyl]-1,3-dihydro-benzo[b][1,4]diazepin-2-one], the melting point lay within 176 to 178 °C.

Regarding `CN(C)c1cc2c(cc1Cl)NC(=O)CC(c1cccc(-c3csc(N)n3)c1)=N2` [Example 194, 4-[3-(2-Amino-thiazol-4-yl)-phenyl]-8-chloro-7-dimethylamino-1,3-dihydro-benzo[b][1,4]diazepin-2-one], the melting point was 247 to 248 °C.

As to `CN(C)c1cc2c(cc1Cl)NC(=O)CC(c1cccc(-c3csc(NC(=N)N)n3)c1)=N2` [Example 196, N-{4-[3-(7-Chloro-8-dimethylamino-4-oxo-4,5-dihydro-3H-benzo[b][1,4]diazepin-2-yl)-phenyl]-thiazol-2-yl}-guanidine], the melting point was 221 °C (dec.).
